Tests used:
[1] = tested on: water immersed restraint stress ulcerization; test: Rat water immersed restraint stress ulcerization, gum arabic preparation (Test Example 2); assay type: in vivo, Male Wister rats; details: for Ulcer Index (Mean ± S.B.) / Inhibition rate (%): dose 25 mg/kg orally, preparation with 5% gum arabic (2 ml/kg); for Ulcer Index (Mean ± S.B.): rats fasted overnight; for Inhibition rate (%): versus control; for antiulcer activity: summary in words of Table 2, no significant difference between the two compounds
Method: (§1) The test was conducted according to the method of rat water immersed restraint stress ulcerization proposed by Okabe et al. (Jpn. J. Pharmacol., 18, 9, (1968)). That is, male Wistar rats weighing 230 to 250 g were fasted for 24 hours, put in a stress cage in the erect position, and were immersed in a thermostatic water tank at 22 ± 1 °C up to the sternal process. The rats were sacrificed 7 hours later, and the stomach was removed. The pylorus was ligated and 10 ml of physiological saline was infused into the stomach. The cardia also was ligated and dipped in 1% formalin for 5 to 10 minutes. Afterwards, the stomach was opened along the greater curvature, and any blood deposited on the mucosa in the glandular portion was wiped off gently. The length of the remaining ulcers (erosions) was measured. The sum (mm) of the length of the ulcers in each rat was defined as the ulcer index. The test material was administered orally 90 minutes before stress loading (dose: 5 mg/kg).
Male Wister rats weighing 200 to 220 g were fasted overnight and the preparation containing Compound 2 (S-(2-cyclohexylethyl)-N-(2-decenoyl) cysteamine) and 5% gum arabic or the preparation containing the S-oxide derivarive of Compound 2 (S-(2-cyclohexylethyl)-N-(2-decenoyl) cysteamine S-oxide) and 5% gum arabic was orally administered to each rat (2 ml/kg).
Antiulcer activity of each test compound was evaluated in the same manner as in Test Example 1.

[2] = tested on: water immersed restraint stress ulcerization; test: Rat water immersed restraint stress ulcerization (Test Example 1); assay type: in vivo, male Wistar rats; details: dose 5 mg/kg orally 90 minutes before stress loading; for Ulcer Index (Mean ± S.B.): 7 hours immersion at 22 ± 1 °C, suspended in saline containing 10% HCO-60, sum of ulcer lengths per rat; for Inhibition rate (%): versus untreated control
Method: Each test compound was suspended in physiological saline containing 10% polyoxyethylene cured caster oil (HCO-60: manufactured by Nikko Chemicals), and was then tested.
as §1

Row | Structure (SMILES) | Ulcer Index (Mean ± S.B.) [1] [mm] | Inhibition rate (%) [1] [%] | antiulcer activity [1] | Ulcer Index (Mean ± S.B.) [2] [mm] | Inhibition rate (%) [2] [%]
1 | CCCCCCCC=CC(=O)NCC[S+]([O-])CCC1CCCCC1 (stereo not drawn) [S-oxide of Compound 2, S-(2-cyclohexylethyl)-N-(2-decenoyl) cysteamine S-oxide] | 12.8 ± 1.9 | 46.2 | excellent antiulcer activity | – | –
2 | CCCCCCCC=CC(=O)NCCSCCC1CCCCC1 [Compound 2, S-(cyclohexylethyl)-N-(2-decenoyl) cysteamine] | 10.0 ± 1.5 | 58.0 | excellent antiulcer activity | 6.7 ± 1.7 | 69.5
3 | CCCCCCC/C=C/C(=O)NCCSCC1CCCCN1C (stereo not drawn) [Compound 8, N-(2-decenoyl)-S-[(1-methylpiperidyl)methyl] cysteamine] | – | – | – | 8.0 ± 1.7 | 63.6
